In US8541407B2 (ArQule, Inc., priority 2010, dated 2013):

Molecular target: AKT1 (Homo sapiens (Human), UniProt P31749)
Experiment: Inactive Akt Alpha Screen Assay
Conditions: non *labeled: Akt Alpha Screen assay; read-out: AKT1 biochemical assay, IC50
Method: AKT1 activity was assayed using the GSK3-derived biotinylated peptide substrate, crosstide (biotin-[…]), and AlphaScreen™ (Amplified Luminescent Proximity Homogeneous Assay) technology. AKT1 activation was achieved by the addition of the activating kinases PDK1 and MAPKAPK2, lipid vesicles, and ATP. The extent of peptide phosphorylation was determined using a phospho-AKT substrate antibody and acceptor beads conjugated to Protein A and donor beads conjugated to streptavidin that bind to the biotin on the peptide. Excitation of the donor beads converted ambient oxygen to excited singlet oxygen which, when in close proximity to acceptor beads, reacted with acceptor beads resulting in signal amplification. […] The plates were incubated for 30 minutes at room temperature, and then stopped in the dark by the addition of 10 μL stop/detection mixture prepared in assay buffer containing EDTA, AlphaScreen™ Streptavidin Donor and Protein A Acceptor beads, and phospho-AKT substrate antibody for final concentrations of 10 mM EDTA, 500 ng/well of both AlphaScreen™ Streptavidin Donor beads and Protein A Acceptor beads, and phospho-AKT substrate antibody at a final dilution of 1:350. Assay plates were incubated for 90 minutes at room temperature in the dark, and the plates were read on a Perkin Elmer Envision Multilabel plate reader (excitation wavelength: […], emission wavelength: 570 nm). […] Envision Instrument Settings: • Instrument: Perkin Elmer Envision • Plate: 96 well • Program Name: • Excitation: Ex Top • Mirror: General Dual—Slot 2 • Excitation Filter: CFP430 Ex.

Sequence of AKT1 (P31749 whole entry): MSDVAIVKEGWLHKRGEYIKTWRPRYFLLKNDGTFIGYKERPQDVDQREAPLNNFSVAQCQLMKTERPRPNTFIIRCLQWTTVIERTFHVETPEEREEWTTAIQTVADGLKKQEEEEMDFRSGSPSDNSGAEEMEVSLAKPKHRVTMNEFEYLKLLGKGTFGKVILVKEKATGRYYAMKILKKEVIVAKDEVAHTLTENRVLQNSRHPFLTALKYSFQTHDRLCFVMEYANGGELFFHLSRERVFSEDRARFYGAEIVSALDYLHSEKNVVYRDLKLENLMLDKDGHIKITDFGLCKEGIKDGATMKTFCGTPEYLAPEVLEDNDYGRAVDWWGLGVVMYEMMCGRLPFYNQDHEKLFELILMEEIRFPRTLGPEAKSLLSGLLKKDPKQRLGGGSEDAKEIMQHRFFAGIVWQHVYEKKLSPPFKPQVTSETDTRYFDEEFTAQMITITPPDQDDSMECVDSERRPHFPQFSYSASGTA

Structure (SMILES) | IC50 [nM]
O=C(Nc1ccccc1)NC1(c2ccc(-c3nnc4n3-c3cccnc3Nc3ccccc3-4)cc2)CCC1 [Example 194, 1-(1-(4-(9H-benzo[f]pyrido[2,3-b][1,2,4]triazolo[4,3-d][1,4]diazepin-3-yl)phenyl)cyclobutyl)-3-phenylurea] | 1200
O=C(NCc1ccc(-c2nnc3n2-c2cccnc2Nc2ccccc2-3)cc1)c1ccccc1 [Example 99, N-(4-(9H-benzo[f]pyrido[2,3-b][1,2,4]triazolo[4,3-d][1,4]diazepin-3-yl)benzyl)benzamide] | 200
Cc1ccc2c(c1)-c1nnc(-c3ccc(C4(N)CCC4)cc3)n1-c1cccnc1N2 [Example 216, 1-(4-(12-methyl-9H-benzo[f]pyrido[2,3-b][1,2,4]triazolo[4,3-d][1,4]diazepin-3-yl)phenyl)cyclobutanamine] | 960
c1ccc2c(c1)Nc1ncccc1-n1c(-c3ccc(CNC4CCC4)cc3)nnc1-2 [Example 69, N-(4-(9H-benzo[f]pyrido[2,3-b][1,2,4]triazolo[4,3-d][1,4]diazepin-3-yl)benzyl)cyclobutanamine] | 4500
O=C1CCCN1CCCNCc1ccc(-c2nnc3n2-c2cccnc2Nc2ccccc2-3)cc1 [Example 78, 1-(3-((4-(9H-benzo[f]pyrido[2,3-b][1,2,4]triazolo[4,3-d][1,4]diazepin-3-yl)benzyl)amino)propyl)pyrrolidin-2-one] | 4400
c1ccc(-c2nnc3n2-c2cccnc2Nc2ccccc2-3)cc1 [Example 1, 3-phenyl-9H-benzo[f]pyrido[2,3-b][1,2,4]triazolo[4,3-d][1,4]diazepine] | 2800
Cc1ccc(CN2CCN(Cc3ccc(-c4nnc5n4-c4cccnc4Nc4ccccc4-5)cc3)CC2)cc1 [Example 91, 3-(4-((4-(4-methylbenzyl)piperazin-1-yl)methyl)phenyl)-9H-benzo[f]pyrido[2,3-b][1,2,4]triazolo[4,3-d][1,4]diazepine] | 2800
O=S(=O)(NCc1ccc(-c2nnc3n2-c2cccnc2Nc2ccccc2-3)cc1)c1cccnc1 [Example 105, N-(4-(9H-benzo[f]pyrido[2,3-b][1,2,4]triazolo[4,3-d][1,4]diazepin-3-yl)benzyl)pyridine-3-sulfonamide] | 220
O=C(NCc1ccccc1Cl)NC1CCN(Cc2ccc(-c3nnc4n3-c3cccnc3Nc3ccccc3-4)cc2)CC1 [Example 173, 1-(1-(4-(9H-benzo[f]pyrido[2,3-b][1,2,4]triazolo[4,3-d][1,4]diazepin-3-yl)benzyl)piperidin-4-yl)-3-(2-chlorobenzyl)urea] | 910
O=C1NCN(c2ccccc2)C12CCN(Cc1ccc(-c3nnc4n3-c3cccnc3Nc3ccccc3-4)cc1)CC2 [Example 162, 8-(4-(9H-benzo[f]pyrido[2,3-b][1,2,4]triazolo[4,3-d][1,4]diazepin-3-yl)benzyl)-1-phenyl-1,3,8-triazaspiro[4.5]decan-4-one] | 950
O=C(NCCc1ccc(-c2nnc3n2-c2cccnc2Nc2ccccc2-3)cc1)c1ccccc1 [Example 111, N-(4-(9H-benzo[f]pyrido[2,3-b][1,2,4]triazolo[4,3-d][1,4]diazepin-3-yl)phenethyl)benzamide] | 630
O=C(c1ccc(-c2nnc3n2-c2cccnc2Nc2ccccc2-3)cc1)N1CCC(n2c(=O)[nH]c3ccccc32)CC1 [Example 26, 1-(1-(4-(9H-benzo[f]pyrido[2,3-b][1,2,4]triazolo[4,3-d][1,4]diazepin-3-yl)benzoyl)piperidin-4-yl)-1H-benzo[d]imidazol-2(3H)-one] | 800
O=S(=O)(NC1CCN(Cc2ccc(-c3nnc4n3-c3cccnc3Nc3ccccc3-4)cc2)CC1)C1CC1 [Example 149, N-(1-(4-(9H-benzo[f]pyrido[2,3-b][1,2,4]triazolo[4,3-d][1,4]diazepin-3-yl)benzyl)piperidin-4-yl)cyclopropanesulfonamide] | 5300
CC(C)CN(C)Cc1ccc(-c2nnc3n2-c2cccnc2Nc2ccccc2-3)cc1 [Example 85, N-(4-(9H-benzo[f]pyrido[2,3-b][1,2,4]triazolo[4,3-d][1,4]diazepin-3-yl)benzyl)-N,2-dimethylpropan-1-amine] | 7100
COC(=O)c1sccc1S(=O)(=O)NC1CCN(Cc2ccc(-c3nnc4n3-c3cccnc3Nc3ccccc3-4)cc2)CC1 [Example 145, methyl 3-(N-(1-(4-(9H-benzo[f]pyrido[2,3-b][1,2,4]triazolo[4,3-d][1,4]diazepin-3-yl)benzyl)piperidin-4-yl)sulfamoyl)thiophene-2-carboxylate] | 790
CC(C)(N)c1ccc(-c2nnc3n2-c2cccnc2Nc2ccccc2-3)cc1 [Example 192, 2-(4-(9H-benzo[f]pyrido[2,3-b][1,2,4]triazolo[4,3-d][1,4]diazepin-3-yl)phenyl)propan-2-amine] | 340

Structure (SMILES) | IC50 [nM]
Cc1cc(C(=O)NC2(c3ccc(-c4nnc5n4-c4cccnc4Nc4ccccc4-5)cc3)CCC2)no1 [Example 206, N-(1-(4-(9H-benzo[f]pyrido[2,3-b][1,2,4]triazolo[4,3-d][1,4]diazepin-3-yl)phenyl)cyclobutyl)-5-methylisoxazole-3-carboxamide] | 240
O=S(=O)(NC1CCN(Cc2ccc(-c3nnc4n3-c3cccnc3Nc3ccccc3-4)cc2)CC1)c1cccc(F)c1 [Example 157, N-(1-(4-(9H-benzo[f]pyrido[2,3-b][1,2,4]triazolo[4,3-d][1,4]diazepin-3-yl)benzyl)piperidin-4-yl)-3-fluorobenzenesulfonamide] | 2700
O=S(=O)(NC1(c2ccc(-c3nnc4n3-c3cccnc3Nc3ccccc3-4)cc2)CCC1)c1ccc(F)cc1 [Example 197, N-(1-(4-(9H-benzo[f]pyrido[2,3-b][1,2,4]triazolo[4,3-d][1,4]diazepin-3-yl)phenyl)cyclobutyl)-4-fluorobenzenesulfonamide] | 580
O=S(=O)(NCc1ccc(-c2nnc3n2-c2cccnc2Nc2ccccc2-3)cc1)c1ccccc1 [Example 101, N-(4-(9H-benzo[f]pyrido[2,3-b][1,2,4]triazolo[4,3-d][1,4]diazepin-3-yl)benzyl)benzenesulfonamide] | 140
O=C(Nc1ccc(-c2nnc3n2-c2cccnc2Nc2ccccc2-3)cc1)c1cc(C(F)(F)F)cc(C(F)(F)F)c1 [Example 29, N-(4-(9H-benzo[f]pyrido[2,3-b][1,2,4]triazolo[4,3-d][1,4]diazepin-3-yl)phenyl)-3,5-bis(trifluoromethyl)benzamide] | 2500
O=C(NCc1ccc(-c2nnc3n2-c2cccnc2Nc2ccccc2-3)cc1)C1CCC1 [Example 100, N-(4-(9H-benzo[f]pyrido[2,3-b][1,2,4]triazolo[4,3-d][1,4]diazepin-3-yl)benzyl)cyclobutanecarboxamide] | 1800
c1ccc(-c2nnc3n2-c2ccccc2Nc2ccccc2-3)cc1 [Example 20, 3-phenyl-9H-dibenzo[b,f][1,2,4]triazolo[4,3-d][1,4]diazepine] | 1900
COc1ccccc1C(=O)Nc1ccc(-c2nnc3n2-c2cccnc2Nc2ccccc2-3)cc1 [Example 41, N-(4-(9H-benzo[f]pyrido[2,3-b][1,2,4]triazolo[4,3-d][1,4]diazepin-3-yl)phenyl)-2-methoxybenzamide] | 520
c1ccc(CCNC2(c3ccc(-c4nnc5n4-c4cccnc4Nc4ccccc4-5)cc3)CCC2)cc1 [Example 229, 1-(4-(9H-benzo[f]pyrido[2,3-b][1,2,4]triazolo[4,3-d][1,4]diazepin-3-yl)phenyl)-N-phenethylcyclobutanamine] | 3800
Fc1ccccc1N1CCN(Cc2ccc(-c3nnc4n3-c3cccnc3Nc3ccccc3-4)cc2)CC1 [Example 67, 3-(4-((4-(2-fluorophenyl)piperazin-1-yl)methyl)phenyl)-9H-benzo[f]pyrido[2,3-b][1,2,4]triazolo[4,3-d][1,4]diazepine] | 2800
O=C(NCc1ccc(-c2nnc3n2-c2cccnc2Nc2ccccc2-3)cc1)Nc1ccc(F)cc1 [Example 124, 1-(4-(9H-benzo[f]pyrido[2,3-b][1,2,4]triazolo[4,3-d][1,4]diazepin-3-yl)benzyl)-3-(4-fluorophenyl)urea] | 1200
O=S(=O)(NCc1ccc(-c2nnc3n2-c2cccnc2Nc2ccccc2-3)cc1)c1cccc(F)c1 [Example 113, N-(4-(9H-benzo[f]pyrido[2,3-b][1,2,4]triazolo[4,3-d][1,4]diazepin-3-yl)benzyl)-3-fluorobenzenesulfonamide] | 400
c1ccc(CN2CCN(Cc3ccc(-c4nnc5n4-c4cccnc4Nc4ccccc4-5)cc3)CC2)cc1 [Example 82, 3-(4-((4-benzylpiperazin-1-yl)methyl)phenyl)-9H-benzo[f]pyrido[2,3-b][1,2,4]triazolo[4,3-d][1,4]diazepine] | 5300
CC(C)(C)c1ccc(-c2nnc3n2-c2cccnc2Nc2ccccc2-3)cc1 [Example 7, 3-(4-(tert-butyl)phenyl)-9H-benzo[f]pyrido[2,3-b][1,2,4]triazolo[4,3-d][1,4]diazepine] | 4700
O=C(Nc1ccc(-c2nnc3n2-c2cccnc2Nc2ccccc2-3)cc1)c1ccc2c(c1)OCO2 [Example 47, N-(4-(9H-benzo[f]pyrido[2,3-b][1,2,4]triazolo[4,3-d][1,4]diazepin-3-yl)phenyl)benzo[d][1,3]dioxole-5-carboxamide] | 53
